Where two headings read alike, the source gives them in different places. One block for each molecule: values may come before it.
Assays:
human DRD3 = settings: cited from earlier work
human recombinant DRD3 = biological target: T1, human recombinant DRD3 (Homo sapiens, UniProt P35462); experiment: [3H]-methylspiperone binding inhibition, human recombinant DRD3 in CHO cells (Eurofins Discovery assay #48); settings: for inhibition at 10 µM: 10 μM competitor, single concentration, mean of two independent experiments, CHO cells, read-out: percentage of inhibition of [3H]-methylspiperone binding; for ligand efficiency (LE): SpaceDock hits, LE as in ref 53; for Ki: from six concentrations dose-response curves, read-out: inhibition constant (Ki)
T1 construct: host or cells: CHO cells
T1 sequence (P35462 whole entry): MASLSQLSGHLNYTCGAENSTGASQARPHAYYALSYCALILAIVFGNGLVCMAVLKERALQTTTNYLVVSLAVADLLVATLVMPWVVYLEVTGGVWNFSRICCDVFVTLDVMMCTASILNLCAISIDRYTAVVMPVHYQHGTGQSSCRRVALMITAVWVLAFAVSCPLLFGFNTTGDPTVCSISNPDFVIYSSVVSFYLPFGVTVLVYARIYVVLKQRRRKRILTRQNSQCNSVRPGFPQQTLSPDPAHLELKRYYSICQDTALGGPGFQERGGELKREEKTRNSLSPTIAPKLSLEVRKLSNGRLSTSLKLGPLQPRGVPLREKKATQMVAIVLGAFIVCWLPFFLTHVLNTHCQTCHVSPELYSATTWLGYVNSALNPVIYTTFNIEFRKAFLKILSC
Protocol: Fig. S8. Binding of six SpaceDock hits to the human dopamine D3 receptor, expressed by the
percentage of inhibition of [3H]‐methylspiperone binding to human recombinant DRD3 in CHO cells
(Eurofins‐Discovery assay #48). Inhibition constants (Ki) were determined from six concentrations

Compound: CCc1cc(Cl)c(OC)c(C(=O)NC[C@@H]2CCCN2CC)c1O [Eticlopride, eticlopride]
Ki (human DRD3; eticlopride, in Figure 4A): 0.00012 µM

Compound: Cc1ccc(C)c(C(=O)NCCCCN2CCN(c3cc(C)ccc3C)CC2)c1 [CHEMBL1258495]
Ki (human DRD3; closest ChEMBL ligand): 0.028 µM

inhibition at 10 µM (human recombinant DRD3): 80.2 ± 0.5%
ligand efficiency (LE) (human recombinant DRD3): 0.39
Ki (human recombinant DRD3): 1.57 µM
Compound: CCCN(CCNC(=O)c1cccc2sccc12)C(C)C [#107]

Compound: CCCN(CCCCNC(=O)c1cccc2cc[nH]c12)CC1CC1c1cccc(F)c1 (stereo not drawn) [CHEMBL4590839]
Ki (human DRD3; closest ChEMBL ligand): 0.0188 µM

inhibition at 10 µM (human recombinant DRD3): 13.6 ± 0.2%
Compound: CCc1oc(C)cc1C(=O)NCC1CCN(CC)CC1 [#97]

inhibition at 10 µM (human recombinant DRD3): 72.6 ± 0.9%
ligand efficiency (LE) (human recombinant DRD3): 0.39
Ki (human recombinant DRD3): 1.65 µM
Compound: CCCN(CC)CCNC(=O)c1nn(C)c2c1CSCC2 [#161]

Compound: C#CC1CCC(N(CCC)CCCCNC(=O)c2ccc(OCCCc3cnn(CCCC)n3)c(OC)c2)CC1 (stereo not drawn) [CHEMBL2397478]
Ki (human DRD3; closest ChEMBL ligand): 0.001 µM

inhibition at 10 µM (human recombinant DRD3): 4.7 ± 1.8%
Compound: Cc1nc2sccn2c1C(=O)NCC1CCCCC1N1CCCC1 (stereo not drawn) [#215]

inhibition at 10 µM (human recombinant DRD3): -5.1 ± 4.5%
Compound: CCN(CC)CC(CC)(CC)NC(=O)c1cccc2nc(C)sc12 [#110]

inhibition at 10 µM (human recombinant DRD3): 3.5 ± 3.1%
Compound: CCN1CCC[C@H]1CNC(=O)c1c(-c2ccccc2)noc1C [#239]

inhibition at 10 µM (human recombinant DRD3): 95.1 ± 1.1%
ligand efficiency (LE) (human recombinant DRD3): 0.40
Ki (human recombinant DRD3): 0.36 µM
Compound: CCc1cc2c(c(C(=O)NCCN(C(C)C)C3CC3)c1)OCC2 [#1]

inhibition at 10 µM (human recombinant DRD3): 88.2 ± 0.8%
ligand efficiency (LE) (human recombinant DRD3): 0.40
Ki (human recombinant DRD3): 0.32 µM
Compound: CCCN1CCCC1CNC(=O)c1c[nH]cc1-c1ccccc1 (stereo not drawn) [#66]

inhibition at 10 µM (human recombinant DRD3): 21.3 ± 0.4%
Compound: CC(C)N(CCNC(=O)c1cn(C)nc1C1CCOC1)C1CC1 (stereo not drawn) [#36]

Compound: COc1cc2c(c(C(=O)NC[C@H]3CCCN3Cc3ccccc3)c1)OCC2 [CHEMBL148352]
Ki (human DRD3; closest ChEMBL ligand): 0.12 µM

inhibition at 10 µM (human recombinant DRD3): 44.4 ± 0.8%
Compound: CCCN(CCC)CCNC(=O)c1cccc2oc(C)nc12 [#256]

Compound: CCN(CC)CCNC(=O)c1cc(Cl)c(N)cc1OC [CHEMBL86]
Ki (human DRD3; closest ChEMBL ligand): 0.023 µM

inhibition at 10 µM (human recombinant DRD3): 88.7 ± 0.1%
ligand efficiency (LE) (human recombinant DRD3): 0.43
Ki (human recombinant DRD3): 0.401 µM
Compound: CCCN(CC)CCNC(=O)c1cc(Br)cc2[nH]cnc12 [#142]

inhibition at 10 µM (human recombinant DRD3): 13.7 ± 1.2%
Compound: CCCN(CCC)CCNC(=O)C1CCc2cnn(C)c2C1 (stereo not drawn) [#35]

inhibition at 10 µM (human recombinant DRD3): 26.2 ± 0.8%
Compound: Cc1ccc(C(CNC(=O)c2cc(C)nc3c2cnn3C)N2CCCC2)cc1 (stereo not drawn) [#252]

inhibition at 10 µM (human recombinant DRD3): 90.7 ± 1.6%
ligand efficiency (LE) (human recombinant DRD3): 0.36
Ki (human recombinant DRD3): 1.4 µM
Compound: CCCN(CCC)CCNC(=O)c1cccc2c(C)c(C)[nH]c12 [#25]

inhibition at 10 µM (human recombinant DRD3): 34.3 ± 1.3%
Compound: CCc1ccc2occ(C(=O)NCC3CCCN(CC)C3)c2c1 (stereo not drawn) [#33]
